The assay concerns L1210 leukemia ip in BDF1 mice, survival T/C. Kind of assay: NCI In Vivo Anticancer Drug Screen. Data for tumor model L1210 Leukemia (intraperitoneal) in B6D2F1 (BDF1) mice. Particulars: higher = longer survival. In outline:
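Value reflects the ratio of survival in compound-treated mice to survival in vehicle-treated controls, with both groups carrying the same transplanted tumor.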

[1] abbreviates: endpoint: mean survival time, dose: 100.0 mg/kg/injection, schedule: Q01DX009 (ip), vehicle: Klucel (hydroxypropylcellulose) (HPC).
[2] abbreviates: endpoint: mean survival time, dose: 100.0 mg/kg/injection, schedule: Q04DX003 (ip), vehicle: Klucel (hydroxypropylcellulose) (HPC).
Setting [3] is: endpoint: mean survival time, dose: 200.0 mg/kg/injection, schedule: Q01DX009 (ip), vehicle: Klucel (hydroxypropylcellulose) (HPC).
Setting [4] is: endpoint: mean survival time, dose: 200.0 mg/kg/injection, schedule: Q04DX003 (ip), vehicle: Klucel (hydroxypropylcellulose) (HPC).
[5] abbreviates: endpoint: mean survival time, dose: 400.0 mg/kg/injection, schedule: Q01DX009 (ip), vehicle: Klucel (hydroxypropylcellulose) (HPC).
[6] abbreviates: endpoint: mean survival time, dose: 400.0 mg/kg/injection, schedule: Q04DX003 (ip), vehicle: Klucel (hydroxypropylcellulose) (HPC).
Where [7] appears, read: endpoint: mean survival time, dose: 100.0 mg/kg/injection, schedule: Q01DX009 (ip), vehicle: saline with Tween-80.
Setting [8] is: endpoint: mean survival time, dose: 200.0 mg/kg/injection, schedule: Q01DX009 (ip), vehicle: saline with Tween-80.
The mark [9] stands for this setting: endpoint: mean survival time, dose: 400.0 mg/kg/injection, schedule: Q01DX009 (ip), vehicle: saline with Tween-80.

Structures are written as SMILES. Where “and” joins values, the source holds several entries; their conditions need not be identical. Equal values may be shown once. Toxic doses and inconclusive results are not listed.

Consider `COc1ccc(C[C@H](N)C(=O)NC2C(CO)OC(n3cnc4c(N(C)C)ncnc43)C2O)cc1` (stereo not given in full), for which the T/C (endpoint: mean survival time, dose: 5.0 mg/kg/injection, schedule: Q01DX001 (ip), vehicle: saline) is 103 % of control; the T/C (endpoint: mean survival time, dose: 9.94 mg/kg/injection, schedule: Q01DX Z (ip), vehicle: carboxymethylcellulose (CMC)) is 108 % of control; the T/C (endpoint: mean survival time, dose: 10.0 mg/kg/injection, schedule: Q01DX001 (ip), vehicle: saline) was 97 % of control; the T/C (endpoint: mean survival time, dose: 19.88 mg/kg/injection, schedule: Q01DX Z (ip), vehicle: carboxymethylcellulose (CMC)) was 117 % of control; the T/C (endpoint: mean survival time, dose: 20.0 mg/kg/injection, schedule: Q01DX001 (ip), vehicle: saline) was 95 % of control; the T/C (endpoint: mean survival time, dose: 39.75 mg/kg/injection, schedule: Q01DX Z (ip), vehicle: carboxymethylcellulose (CMC)) is 112 % of control. Besides, the T/C is 110 % of control (endpoint: mean survival time, dose: 40.0 mg/kg/injection, schedule: Q01DX001 (ip), vehicle: saline); 113 % of control (endpoint: mean survival time, dose: 79.5 mg/kg/injection, schedule: Q01DX Z (ip), vehicle: carboxymethylcellulose (CMC)); 100 % of control (endpoint: mean survival time, dose: 80.0 mg/kg/injection, schedule: Q01DX001 (ip), vehicle: saline); 95 % of control (endpoint: median survival time, dose: 25.0 mg/kg/injection, schedule: Q04DX003 (ip), vehicle: saline); 107 % of control (endpoint: median survival time, dose: 50.0 mg/kg/injection, schedule: Q04DX003 (ip), vehicle: saline); 108 % of control (endpoint: median survival time, dose: 100.0 mg/kg/injection, schedule: Q04DX003 (ip), vehicle: saline). The T/C (endpoint: median survival time, dose: 200.0 mg/kg/injection, schedule: Q04DX003 (ip), vehicle: saline) was 106 % of control.
In the case of `CC1(CO)CCCC2(C)C3=C(CCCC3)CCC12` (stereo not given), the T/C (endpoint: mean survival time, dose: 5.0 mg/kg/injection, schedule: Q01DX001 (ip), vehicle: other) was 102 % of control; the T/C (endpoint: mean survival time, dose: 10.0 mg/kg/injection, schedule: Q01DX001 (ip), vehicle: other) is 96 % of control; the T/C (endpoint: mean survival time, dose: 20.0 mg/kg/injection, schedule: Q01DX001 (ip), vehicle: other) is 100 % of control; the T/C (endpoint: mean survival time, dose: 40.0 mg/kg/injection, schedule: Q01DX001 (ip), vehicle: other) was 98 % of control; the T/C (endpoint: mean survival time, dose: 80.0 mg/kg/injection, schedule: Q01DX001 (ip), vehicle: other) is 98 % of control.
With `COc1ccc(NC(=O)Nc2ccccc2Cl)cc1`, the T/C was 96 % of control under setting [1]; 90 % of control under setting [2]; 95 % of control under setting [3]; 92 % of control under setting [4]; 91 % of control under setting [5]; 90 % of control under setting [6].
Regarding `NC(=NCc1ccccc1)C(F)(F)C(F)(F)F`, the T/C is 103 % of control and 118 % of control (endpoint: mean survival time, dose: 44.0 mg/kg/injection, schedule: Q01DX Z (ip), vehicle: other); 100 % of control and 101 % of control (endpoint: mean survival time, dose: 66.0 mg/kg/injection, schedule: Q01DX Z (ip), vehicle: other); 103 % of control and 90 % of control (endpoint: mean survival time, dose: 100.0 mg/kg/injection, schedule: Q01DX Z (ip), vehicle: other); 92 % of control and 90 % of control (endpoint: mean survival time, dose: 150.0 mg/kg/injection, schedule: Q01DX Z (ip), vehicle: other).
For the compound `COC(=O)/C=C(\C(=O)OC)N1CCCCC1`, the T/C (endpoint: mean survival time, dose: 18.75 mg/kg/injection, schedule: Q01DX009 (ip), vehicle: saline with Tween-80) was 98 % of control; the T/C (endpoint: mean survival time, dose: 37.5 mg/kg/injection, schedule: Q01DX009 (ip), vehicle: saline with Tween-80) is 101 % of control; the T/C (endpoint: mean survival time, dose: 75.0 mg/kg/injection, schedule: Q01DX009 (ip), vehicle: saline with Tween-80) is 91 % of control; the T/C under setting [7] was 107 % of control.
With `Cc1ccc(C(=O)/C=C/c2ccc(Cl)c(Cl)c2)c(C)c1`, the T/C is, setting by setting: under setting [7], 92 % of control; (endpoint: mean survival time, dose: 100.0 mg/kg/injection, schedule: Q04DX002 (ip), vehicle: saline with Tween-80) 98 % of control; under setting [8], 95 % of control; (endpoint: mean survival time, dose: 200.0 mg/kg/injection, schedule: Q04DX002 (ip), vehicle: saline with Tween-80) 91 % of control; under setting [9], 109 % of control; (endpoint: mean survival time, dose: 400.0 mg/kg/injection, schedule: Q04DX002 (ip), vehicle: saline with Tween-80) 91 % of control.
Turning to `O=C1OC(c2ccccc2)(c2ccccc2)c2sccc21`, the T/C is 91 % of control (endpoint: mean survival time, dose: 50.0 mg/kg/injection, schedule: Q01DX009 (ip), vehicle: saline with Tween-80); 102 % of control under setting [7]; 94 % of control under setting [8].
In the case of `O=C(O)C(Cl)C(Cl)c1ccccc1` (stereo not given), the T/C by setting is: (endpoint: mean survival time, dose: 75.0 mg/kg/injection, schedule: Q01DX001 (ip), vehicle: saline) 98 % of control; (endpoint: mean survival time, dose: 150.0 mg/kg/injection, schedule: Q01DX001 (ip), vehicle: saline) 98 % of control; (endpoint: mean survival time, dose: 300.0 mg/kg/injection, schedule: Q01DX001 (ip), vehicle: saline) 101 % of control.
In the case of `CC(Br)C(=O)NCC(=O)O` (stereo not given), the T/C by setting is: under setting [7], 93 % of control; under setting [8], 92 % of control.
`NOCc1ccc(OCc2ccccc2)cc1`: the T/C reads like this: (endpoint: mean survival time, dose: 100.0 mg/kg/injection, schedule: Q04DX003 (ip), vehicle: acetone) 102 % of control; (endpoint: mean survival time, dose: 200.0 mg/kg/injection, schedule: Q04DX003 (ip), vehicle: acetone) 95 % of control.
For the compound `Cc1n[nH]c(=O)[nH]c1=O`, the T/C was 95 % of control (endpoint: mean survival time, dose: 3.0 mg/kg/injection, schedule: Q01DX009 (ip), vehicle: saline); 93 % of control (endpoint: mean survival time, dose: 6.0 mg/kg/injection, schedule: Q01DX009 (ip), vehicle: saline); 93 % of control (endpoint: mean survival time, dose: 12.0 mg/kg/injection, schedule: Q01DX009 (ip), vehicle: saline); 93 % of control (endpoint: mean survival time, dose: 24.0 mg/kg/injection, schedule: Q01DX009 (ip), vehicle: saline); 97 % of control (endpoint: mean survival time, dose: 48.0 mg/kg/injection, schedule: Q01DX009 (ip), vehicle: saline); 96 % of control (endpoint: mean survival time, dose: 67.5 mg/kg/injection, schedule: Q01DX Z (ip), vehicle: saline). In addition, the T/C is 105 % of control (endpoint: mean survival time, dose: 125.0 mg/kg/injection, schedule: Q01DX Z (ip), vehicle: saline); 97 % of control (endpoint: mean survival time, dose: 200.0 mg/kg/injection, schedule: Q01DX001 (ip), vehicle: acetone); 96 % of control (endpoint: mean survival time, dose: 250.0 mg/kg/injection, schedule: Q01DX Z (ip), vehicle: saline); 103 % of control (endpoint: mean survival time, dose: 400.0 mg/kg/injection, schedule: Q01DX001 (ip), vehicle: acetone); 105 % of control (endpoint: mean survival time, dose: 500.0 mg/kg/injection, schedule: Q01DX Z (ip), vehicle: saline); 98 % of control (endpoint: mean survival time, dose: 800.0 mg/kg/injection, schedule: Q01DX001 (ip), vehicle: acetone).
As to `CCOC(=O)Nc1ccc(OC(=O)Oc2ccc(NC(=O)OCC)cc2)cc1`, the T/C by setting is: (endpoint: mean survival time, dose: 100.0 mg/kg/injection, schedule: Q01DX001 (ip), vehicle: saline) 97 % of control; (endpoint: mean survival time, dose: 200.0 mg/kg/injection, schedule: Q01DX001 (ip), vehicle: saline) 97 % of control; (endpoint: mean survival time, dose: 400.0 mg/kg/injection, schedule: Q01DX001 (ip), vehicle: saline) 86 % of control.
With `O=[N+]([O-])c1ccc(S(=O)(=O)O/N=C2\c3ccccc3-c3ccc([N+](=O)[O-])cc32)cc1`, the T/C under setting [1] is 161 % of control; the T/C under setting [2] was 97 % of control; the T/C under setting [3] was 109 % of control; the T/C under setting [4] was 98 % of control; the T/C under setting [5] is 109 % of control; the T/C under setting [6] is 95 % of control.
Take `CSc1ccc(NC(=O)Nc2ccc(S(N)(=O)=O)cc2)cc1`: the T/C is 106 % of control under setting [7]; 104 % of control under setting [2]; 95 % of control under setting [8]; 100 % of control under setting [4]; 102 % of control under setting [9]; 98 % of control under setting [6].
Regarding `O=c1cc(C(F)(F)F)[nH]c2ccccc12`, the T/C was 106 % of control (endpoint: mean survival time, dose: 25.0 mg/kg/injection, schedule: Q04DX002 (ip), vehicle: Klucel (hydroxypropylcellulose) (HPC)) and 98 % of control (endpoint: mean survival time, dose: 50.0 mg/kg/injection, schedule: Q04DX002 (ip), vehicle: Klucel (hydroxypropylcellulose) (HPC)).
Regarding `CC(=O)c1cccc(N=Cc2ccc(Cl)cc2Cl)c1`, the T/C reads like this: under setting [1], 95 % of control; under setting [3], 93 % of control; under setting [5], 93 % of control.

(Values after PubChem BioAssay AID248 (DTP/NCI, 2004).)
